For two molecules, Activity and CC50 results are on record in ChEMBL document CHEMBL1221247, “Oxidative stimuli-responsive nanoprodrug of camptothecin kills glioblastoma cells” (2010).

Active and inactive are the calls of the source. The rule behind the calls is not given here.

The test system of one assay is U-87MG ATCC. Briefly: Cytotoxicity against human U87MG cells at 250 nM after 6 days. In kind it is functional, cell-based.
Assay [1] in a line: Cytotoxicity against human U87MG cells after 6 days. Type of assay: functional, U-87MG ATCC. The settings on record: U-87 MG, 144 h, read-out: LD50 (the source's name).

Take `CC[C@@]1(OC(=O)OCCOCCOCCOCCOC(=O)CCCC[C@@H]2CCSS2)C(=O)OCc2c1cc1n(c2=O)Cc2cc3ccccc3nc2-1`: in the assay on U-87MG ATCC, the outcome was Active. Besides, the CC50 in assay [1] amounted to 0.02 µM.

`CC[C@@]1(O)C(=O)OCc2c1cc1n(c2=O)Cc2cc3ccccc3nc2-1` [CAMPTOTHECIN]: the outcome with U-87MG ATCC was Active. The CC50 in assay [1] is 0.02 µM.
